Key:
Experiment in all cases: aequorin intracellular calcium assay, inhibition of ACh response
Assay type in all cases: cell-based
[1] = biological target: human α3β4α5D nAChR (D398 variant of α5; α3β4α5N carries N398) (Homo sapiens, UniProt P30532+P30926+P32297)
[2] = biological target: human α3β4α5D nAChR (D398 variant of α5; α3β4α5N carries N398) (Homo sapiens, UniProt P30532+P30926+P32297, P30532:D398N)
[3] = biological target: human α3β4 nicotinic acetylcholine receptor (α3β4 nAChR) (Homo sapiens, UniProt P30926+P32297)
Chain of human α3β4 nicotinic acetylcholine receptor (α3β4 nAChR) (P32297 32-505): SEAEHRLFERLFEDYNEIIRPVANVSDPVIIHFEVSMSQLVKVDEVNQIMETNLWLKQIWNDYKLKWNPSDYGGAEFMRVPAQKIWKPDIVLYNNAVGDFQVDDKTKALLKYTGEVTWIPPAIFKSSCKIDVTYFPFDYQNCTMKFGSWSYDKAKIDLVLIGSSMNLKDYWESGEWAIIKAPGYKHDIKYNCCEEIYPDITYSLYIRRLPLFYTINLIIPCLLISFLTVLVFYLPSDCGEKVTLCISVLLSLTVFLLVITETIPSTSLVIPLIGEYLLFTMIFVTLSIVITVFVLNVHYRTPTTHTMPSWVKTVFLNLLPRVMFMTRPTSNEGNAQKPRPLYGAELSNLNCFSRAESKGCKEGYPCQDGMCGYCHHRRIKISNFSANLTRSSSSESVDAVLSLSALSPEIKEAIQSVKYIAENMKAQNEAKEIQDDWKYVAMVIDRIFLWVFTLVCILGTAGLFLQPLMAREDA
Chain of human α3β4 nicotinic acetylcholine receptor (α3β4 nAChR) (P30926 22-498): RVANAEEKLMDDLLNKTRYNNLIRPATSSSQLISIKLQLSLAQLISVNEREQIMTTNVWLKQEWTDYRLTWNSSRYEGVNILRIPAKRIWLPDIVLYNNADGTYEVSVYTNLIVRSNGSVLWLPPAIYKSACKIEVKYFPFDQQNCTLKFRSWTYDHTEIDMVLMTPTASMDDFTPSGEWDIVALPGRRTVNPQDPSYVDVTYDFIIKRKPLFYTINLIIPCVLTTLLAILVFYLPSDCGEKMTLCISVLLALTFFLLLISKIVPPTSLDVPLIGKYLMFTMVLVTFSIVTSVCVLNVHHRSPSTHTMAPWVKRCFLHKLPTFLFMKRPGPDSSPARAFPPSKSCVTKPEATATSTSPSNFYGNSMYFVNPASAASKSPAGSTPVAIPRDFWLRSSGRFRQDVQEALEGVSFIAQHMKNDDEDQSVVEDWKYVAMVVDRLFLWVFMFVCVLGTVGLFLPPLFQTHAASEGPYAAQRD

Chain of human α3β4α5D nAChR (D398 variant of α5; α3β4α5N carries N398) (Homo sapiens, UniProt P30532+P30926+P32297, P30532:D398N) (P32297 32-505): as the sequence (P32297 32-505) above
Chain of human α3β4α5D nAChR (D398 variant of α5; α3β4α5N carries N398) (Homo sapiens, UniProt P30532+P30926+P32297, P30532:D398N) (P30926 22-498): as the sequence (P30926 22-498) above
Chain of human α3β4α5D nAChR (D398 variant of α5; α3β4α5N carries N398) (Homo sapiens, UniProt P30532+P30926+P32297, P30532:D398N) (P30532 23-468 D398N): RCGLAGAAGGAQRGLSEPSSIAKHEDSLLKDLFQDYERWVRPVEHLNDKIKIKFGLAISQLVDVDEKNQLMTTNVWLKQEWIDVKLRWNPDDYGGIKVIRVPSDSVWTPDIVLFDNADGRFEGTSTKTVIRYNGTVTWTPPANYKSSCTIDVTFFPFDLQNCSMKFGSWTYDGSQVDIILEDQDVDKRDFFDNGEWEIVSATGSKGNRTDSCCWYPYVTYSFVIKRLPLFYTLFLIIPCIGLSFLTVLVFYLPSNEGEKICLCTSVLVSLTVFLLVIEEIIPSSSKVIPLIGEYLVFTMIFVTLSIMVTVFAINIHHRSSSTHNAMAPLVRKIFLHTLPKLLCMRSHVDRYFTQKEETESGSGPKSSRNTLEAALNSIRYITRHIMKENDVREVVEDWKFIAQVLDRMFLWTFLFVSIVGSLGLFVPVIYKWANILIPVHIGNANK

SMILES | IC50 [1] [µM] | IC50 [2] [µM] | IC50 [3] [µM]
COc1cc2c3cc1Oc1cc(ccc1O)C[C@@H]1c4c(cc(OC)c(O)c4Oc4ccc(cc4)C[C@@H]3N(C)CC2)CC[N+]1(C)C [D-Tubocurarine] | 0.94 ± 0.21 | 0.64 ± 0.15 | 1.01 ± 0.24
CCCCCCC(=O)OC1CC(C)(C)NC(C)(C)C1 [TMPH, 2,2,6,6-tetramethylpiperidin-4-yl heptanoate] | 0.36 ± 0.02 | 0.45 ± 0.04 | 0.83 ± 0.1

Reference: PMC3661904 (Neuropharmacology, 2012)
